Experimental data published in article PMC8277899, “A novel RyR1-selective inhibitor prevents and rescues sudden death in mouse models of malignant hyperthermia and heat stroke” (Nature Communications, 2021).
Several values for one entry are separate records, joined by “and”; a condition that tells them apart may be missing. Equal entries are not always repeated. Where two headings read alike, the source gives them in different places.

Experiments:
G2435R FDB fibers = assay: Mn2+ quench assay in FDB fibers from G2435R mice; format: cell-based, mouse; settings: 10 µM
Procedure: WT and mutant mice (R2509C, 8- to 20-week old; R163C, 12- to 16-week old, and G2435R, 12- to 16-week old) were euthanized and flexor digitorum brevis (FDB) muscles were dissected and incubated with 2 mg/mL collagenase (Worthington Biochemical Co., NJ, USA) in the HEPES-Krebs solution containing 2 mg/mL bovine serum albumin for 2–3 h at 37 °C. Following incubation, single cells were separated by gentle trituration in collagenase-free HEPES-Krebs solution. Isolated single FDB cells were seeded on a laminin-coated cover slip of the 35 mm glass-bottom dish or on 96 well plate coated with Cultrex basement membrane matrix (Trevigen, Minneapolis, USA).
Assays were carried out as follows[38]: 5 µM of fura2-AM dye (Thermo Fisher Scientific) dissolved in mammalian Ringer solution (133 mM NaCl, 5 mM KCl, 1 mM MgSO4, 25 mM HEPES, 5.5 mM glucose, 2 mM CaCl2, pH 7.4) was loaded into dissociated WT and homozygous G2435R FDB fibers in 96 well plates for 30 min at 37 °C, 5% CO2. […] Fura-2 was illuminated at its isosbestic wavelength (360 nm) with the X-Cite 120 metal halide light source (Exfo, Ontario, Canada) and fluorescence emission at 510 nm was recorded using a 10 ×0.3na objective. […] The fluorescence signals were plotted as fluorescence arbitrary units (f.a.u.) over time. […]

R2509C mice = assay: Muscle force in vivo, grip force test (4-grips test), R2509C mice; set-up: species or system mouse; settings: for grip force (sheet Fig S6c): single mice
Procedure: Muscle force was measured in vivo by grip-force test. […] The force was measured before and 10 and 60 min after i.p. injection of saline or Cpd1 (10 mg/kg). Mice (8- to 12-week old) were gently held by the tails and allowed them to grasp the horizontally positioned metal bar of the Grip Strength Meter (MK308M, Muromachi Kikai, Tokyo, Japan) with their forelimbs and hindlimbs (4-grips test). Each mouse performed four trials for force measurement at every time point. The highest force value applied to the metal bar was recorded and normalized by body weight.

[1] = Metabolic stability in mouse liver microsomes; format: in vitro ADME; settings: 0.5 μM, NADPH
Procedure: Cpd1 (final concentration was 0.5 μM) was incubated with human or mouse hepatic microsomes (XenoTech Ltd, Kansas City, KS) with nicotinamide adenine dinucleotide phosphate (NADPH) for 10 and 60 min at 37 °C. Each reaction was stopped by acetonitrile, and the value of unchanged compound 1 was determined by quantitating using LC–MS/MS, and the metabolic stability was evaluated as a remaining rate (%).

[2] = Pharmacokinetics after i.p. administration in mice; format: in vivo, mouse; set-up: Cpd1 concentration (sheet Fig S5a) / Cpd1 concentration (sheet Fig S5b): unit not given here; settings: for concentration at 10 min / concentration at 30 min / concentration at 60 min / Cmax / half-life / concentration at 5 min: C57BL/6J, mouse, plasma; for concentration at 10 min / concentration at 30 min / concentration at 60 min / concentration at 5 min: intraperitoneal; for Cmax / half-life: ip; for Cpd1 concentration (sheet Fig S5b) / Cpd1 concentration (sheet Fig S5a): i.p., single mice
Procedure: Cpd1 sodium salt (3 mg/kg and 10 mg/kg) dissolved in normal saline was administered i.p. to WT C57BL/6 J mice (10 week-old). Serial tail bled blood samples (∼20 μL) were collected using heparinized tip at 5, 10, 30, and 60 min after administration. Aliquots (5 μL) of plasma samples obtained from each blood were treated with 50 μL of acetonitrile and organic layer were injected onto LC–MS/MS system (Waters Corp., Milford, MA, USA). The pharmacokinetic parameters included maximum concentration (Cmax), elimination half-life (T½).

RyR1 channel = tested on: RyR1 channel; set-up: method as in PMID 31299492; settings: HEK293 cell-based assay; read-out: IC50 for inhibiting the RyR1 channel; cited from earlier work
R163C mice = format: in vivo, mouse

With CCCCCCCCn1cc(C(=O)O)c(=O)c2cc3c(cc21)OCO3 [Cpd1, 6,7-(methylenedioxy)-1-octyl-4-quinolone-3-carboxylic acid] the “Mn2+ quench rate” value (G2435R FDB fibers) was “the same as that in untreated WT fibers”, the “grip force (sheet Fig S6c)” value (R2509C mice; 10 min after Cpd1) was 9.25 and 10 and 6.39 and 8.47 and 6.45 and 7.53 and the “grip force (sheet Fig S6c)” value (R2509C mice; 60 min after Cpd1) was 10.04 and 12.86 and 9.79 and 9.69 and 9.84 and 10.9. For the same compound, the “grip force (sheet Fig S6c)” value (R2509C mice; Pre (before administration), Cpd1 group) was 10.64 and 13.19 and 10.54 and 8.58 and 8.65 and 10.63, the “muscle weakness in grip strength test” value (R2509C mice; R2509C mice, after administration of Cpd1) was “muscle weakness was also observed in 10 min but recovered within 60 min” and the “remaining rate (residual Cpd1, 0 min = 100%)” value ([1]; 10 min) was 23% and 26% and 28% and 19% and 18%. For the same compound, the “remaining rate (residual Cpd1, 0 min = 100%)” value ([1]; 60 min) was 3% and 2% and 4%, the plasma concentration ([2]; 3 mg/kg i.p., 10 min) was 750 ng/mL and 510 ng/mL and 710 ng/mL and 660 ng/mL and 760 ng/mL and the plasma concentration ([2]; 3 mg/kg i.p., 30 min) was 150 ng/mL and 120 ng/mL and 140 ng/mL and 190 ng/mL. For the same compound, the plasma concentration ([2]; 10 mg/kg i.p., 10 min) was 2950 ng/mL and 3200 ng/mL and 1730 ng/mL and 2280 ng/mL and 1660 ng/mL, the plasma concentration ([2]; 10 mg/kg i.p., 60 min) was 50 ng/mL and 60 ng/mL and the concentration at 10 min ([2]; 3 mg/kg, 3 mg/kg i.p., 10 min) was 440 ng/mL. The concentration at 30 min ([2]; 3 mg/kg, 3 mg/kg i.p., 30 min) was 110 ng/mL, the concentration at 10 min ([2]; 10 mg/kg, 10 mg/kg i.p., 10 min) was 3080 ng/mL and the concentration at 60 min ([2]; 10 mg/kg, 10 mg/kg i.p., 60 min) was 40 ng/mL. The Cmax ([2]; 3 mg/kg i.p.) was 1500 ± 200 ng/mL, the half-life ([2]; 3 mg/kg i.p., read-out: t1/2) was 8.4 ± 1.4 min and the Cmax ([2]; 10 mg/kg i.p.) was 5400 ± 600 ng/mL. For the same compound, the half-life ([2]; 10 mg/kg i.p., read-out: t1/2) was 8.6 ± 1.6 min, the half-life ([2]; both the 3 mg/kg and 10 mg/kg dose i.p., read-out: t1/2 (plasma half-life)) was ~8 min and the Cmax ([2]; female mice, 3 mg/kg i.p.) was 1600 ± 100 ng/mL. The half-life ([2]; female mice, 3 mg/kg i.p., read-out: t1/2) was 8.6 ± 0.8 min, the Cmax ([2]; female mice, 10 mg/kg i.p.) was 6000 ± 400 ng/mL and the half-life ([2]; female mice, 10 mg/kg i.p., read-out: t1/2) was 9.3 ± 1 min. The Cmax ([2]; female, 8-times injection of 1 mg/kg at 10 min intervals) was 150 ± 110 ng/mL, the half-life ([2]; female, 8-times injection of 1 mg/kg at 10 min intervals, read-out: t1/2) was 14.8 ± 2.1 min and the Cmax ([2]; male mice, 3 mg/kg i.p.) was 1300 ± 400 ng/mL. It also gave a half-life ([2]; male mice, 3 mg/kg i.p., read-out: t1/2) of 8.3 ± 2.7 min, a Cmax ([2]; male mice, 10 mg/kg i.p.) of 5100 ± 1200 ng/mL and a half-life ([2]; male mice, 10 mg/kg i.p., read-out: t1/2) of 7.4 ± 2.5 min. For the same compound, the Cmax ([2]; male, 8-times injection of 1 mg/kg at 10 min intervals) was 670 ± 110 ng/mL, the half-life ([2]; male, 8-times injection of 1 mg/kg at 10 min intervals, read-out: t1/2) was 9.6 ± 2.7 min and the plasma concentration ([2]; female, 8-times injection of 1 mg/kg at 10 min intervals, 5 min, 1 mg/kg) was 110 ng/mL and 120 ng/mL. The plasma concentration ([2]; female, 8-times injection of 1 mg/kg at 10 min intervals, 30 min, 1 mg/kg) was 30 ng/mL, the plasma concentration ([2]; female, 8-times injection of 1 mg/kg at 10 min intervals, 60 min, 1 mg/kg) was 20 ng/mL and the concentration at 5 min ([2]; female, 1 mg/kg, 8-times injection of 1 mg/kg at 10 min intervals, 5 min) was 140 ng/mL. The concentration at 10 min ([2]; female, 1 mg/kg, 8-times injection of 1 mg/kg at 10 min intervals, 10 min) was 120 ng/mL, the concentration at 30 min ([2]; female, 1 mg/kg, 8-times injection of 1 mg/kg at 10 min intervals, 30 min) was 40 ng/mL and the concentration at 60 min ([2]; female, 1 mg/kg, 8-times injection of 1 mg/kg at 10 min intervals, 60 min) was 10 ng/mL. It also gave a plasma concentration ([2]; male, 8-times injection of 1 mg/kg at 10 min intervals, 60 min, 1 mg/kg) of 20 ng/mL, a concentration at 5 min ([2]; male, 1 mg/kg, 8-times injection of 1 mg/kg at 10 min intervals, 5 min) of 430 ng/mL and a concentration at 60 min ([2]; male, 1 mg/kg, 8-times injection of 1 mg/kg at 10 min intervals, 60 min) of 10 ng/mL. The “Cpd1 concentration (sheet Fig S5b)” value ([2]; time 5, dose head 3) was 1.2 and 1.12 and 0.98, the “Cpd1 concentration (sheet Fig S5b)” value ([2]; time 5, dose head 10) was 4.45 and 3.8 and 3.72 and the “Cpd1 concentration (sheet Fig S5a)” value ([2]; time 10, dose head 3) was 0.44 and 0.75 and 0.51. For the same compound, the “Cpd1 concentration (sheet Fig S5b)” value ([2]; time 10, dose head 3) was 0.71 and 0.66 and 0.76, the “Cpd1 concentration (sheet Fig S5a)” value ([2]; time 10, dose head 10) was 1.73 and 2.28 and 1.66 and the “Cpd1 concentration (sheet Fig S5b)” value ([2]; time 10, dose head 10) was 3.08 and 2.95 and 3.2. For the same compound, the “Cpd1 concentration (sheet Fig S5a)” value ([2]; time 30, dose head 3) was 0.11 and 0.15 and 0.12, the “Cpd1 concentration (sheet Fig S5b)” value ([2]; time 30, dose head 3) was 0.14 and 0.19 and the “Cpd1 concentration (sheet Fig S5b)” value ([2]; time 30, dose head 10) was 0.39 and 0.45 and 0.41. The “Cpd1 concentration (sheet Fig S5b)” value ([2]; time 60, dose head 3) was 0.03 and 0.02, the “Cpd1 concentration (sheet Fig S5a)” value ([2]; time 60, dose head 10) was 0.05 and 0.06 and 0.04 and the “Cpd1 concentration (sheet Fig S5b)” value ([2]; time 60, dose head 10) was 0.04 and 0.05 and 0.06. For the same compound, the IC50 (RyR1 channel) was 12 nM, the “survival curve status code of one mouse after isoflurane anesthesia (code not defined)” value (shortened to “survival curve status code … (code not defined)”) (R163C mice; 2.5 mg/kg, at 11 minutes) was 1 and the “survival curve status code … (code not defined)” value (R163C mice; 2.5 mg/kg, at 12 minutes) was 1. The “survival curve status code … (code not defined)” value (R163C mice; 2.5 mg/kg, at 13 minutes) was 1, the “survival curve status code … (code not defined)” value (R163C mice; 2.5 mg/kg, at 14 minutes) was 1 and the “survival curve status code … (code not defined)” value (R163C mice; 5 mg/kg, at 12 minutes) was 1. For the same compound, the “survival curve status code … (code not defined)” value (R163C mice; 5 mg/kg, at 15 minutes) was 1, the “survival curve status code … (code not defined)” value (R163C mice; 5 mg/kg, at 30 minutes) was 0 and the “rescue effect on [Ca2+]i during MH crisis” value (R163C mice; 10 mg/kg 15 min after induction of isoflurane anesthesia) was “rapidly decreased [Ca^2+]i to the levels measured in WT muscle”. For the same compound, the “survival curve status code … (code not defined)” value (R163C mice; 10 mg/kg, at 30 minutes) was 0 and the “effect on MH episode and death under isoflurane” value (R163C mice; pretreatment at doses of 5 and 10 mg/kg) was “effectively prevented the MH episode and death”.
